We go through four compounds from patent US20240398806A1, “Compositions For and Methods of Treating and/or Preventing Pain” (Duke University, priority 2021, published 2024).

Molecules are shown by their SMILES. Like-named read-outs stand apart in the source and are kept apart here.

Data set [1] has as its system NMDAR. It is filed as cell-based. Conditions: Arrb2-KO mice; NMDA 50 mM as printed. The protocol: In FIG. 9B-FIG. 9D. *p<0.05 as determined by a two-way or one-way ANOVA.
Spinal cord NMDAR plays a critical role in driving inflammatory and neuropathic pain (Woolf C J, et al. (2000) Science. 288(5472):1765-1769). Using spinal cord slice preparations, NMDA (50 mM) induced inward currents in spinal cord out lamina II (IIo) neurons were recorded in WT and Arrb2-KO mice. […] Similarly, duration of intrathecal (i.t.) NMDA-induced spontaneous pain was also potentiated in the KO mice (FIG. 9C).

Data set [2] is described as follows: Pharmacokinetics in monkey (IV and PO). It is filed as in vivo. Conditions: for AUC: monkey; for MRT last: read-out: MRT0-last.
Data set [3] deals with T1, NTSR2 (Homo sapiens, UniProt O95665).
T1 construct: expressed in transfected cells; host or cells: HEK293 cells
The data set can be described thus: Cellular assay of β-arrestin-2 translocation in cells expressing NTSR2. It is filed as cell-based. The method, then: (§1) First, using cellular assays, whether IND candidates such as SBI-810 are similar or better than SBI-553 as β-arrestin biased agonist at NTSR1. is assessed. The chemical entities used in this work were synthesized and validated. However, routine validation of the profile of these compounds is performed routinely using both cellular and in vivo assays. For example, HEK293 cells that express either the NTSR1 or NTSR2 are used to assess the functional profile of the various chemical probes. In addition, a series of genetically engineered mouse lines are used to provide an in vivo validation of novel chemical entities for their abilities to module behaviors in these animals.
(§2) Fourth, cellular assays are used to establish that IND ready analogs like SBI-810 are still selective for the NTSR1 rather than NTSR2. The specificity of the lead compounds toward NTSR1. NTSR2. and β-arrestin-2 are tested in respective cellular assays. More specifically, cells expressing either NTSR1 or NTSR2 are used to assess the function of various compound. […] This translocation is not observed in cells expressing NTSR2.
(§3) Fourth, genetically engineered mice are used to assess the effects and mechanisms of novel ligands. The specificity of the lead compounds toward NTSR1, NTSR2, and β-arrestin-2 dependent signaling is examined. […]

A short description of data set [4]: Pain models with systemic (IP or oral) administration. It is filed as in vivo, mice and rats.
In data set [5] the target is T2, NTSR1 (Homo sapiens, UniProt P30989). The data set can be described thus: Cellular assay of β-arrestin-2 translocation in cells expressing NTSR1. It is filed as cell-based. Also on record: expressed in transfected cells; host or cells: HEK293T cell membranes. The method, then: as §1, §2, §3
Data set [6] deals with T2, NTSR1. The data set can be described thus: [3H]SBI-553 saturation binding to NTSR1-containing HEK293T cell membranes. More on the design: expressed in transfected cells; host or cells: HEK293T cell membranes. Conditions: by the named competitor.
The subject of data set [7] is lamina IIo neurons. More on the design: dose or concentration left out as unconfirmed. Conditions: slices of PTX-treated mice.

T2 sequence (P30989 whole entry): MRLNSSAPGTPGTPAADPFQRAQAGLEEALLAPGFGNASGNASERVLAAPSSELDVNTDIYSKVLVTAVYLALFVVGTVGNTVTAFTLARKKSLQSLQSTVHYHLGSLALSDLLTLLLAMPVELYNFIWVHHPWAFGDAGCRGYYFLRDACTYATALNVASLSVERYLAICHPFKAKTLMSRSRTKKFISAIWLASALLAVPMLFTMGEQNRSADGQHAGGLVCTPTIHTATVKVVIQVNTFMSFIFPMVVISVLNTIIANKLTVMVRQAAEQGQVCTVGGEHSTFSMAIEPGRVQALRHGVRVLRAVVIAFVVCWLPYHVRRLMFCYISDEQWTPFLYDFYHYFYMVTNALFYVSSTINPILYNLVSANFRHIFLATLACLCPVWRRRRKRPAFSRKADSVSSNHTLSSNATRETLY
T1 sequence (O95665 whole entry, species assumed): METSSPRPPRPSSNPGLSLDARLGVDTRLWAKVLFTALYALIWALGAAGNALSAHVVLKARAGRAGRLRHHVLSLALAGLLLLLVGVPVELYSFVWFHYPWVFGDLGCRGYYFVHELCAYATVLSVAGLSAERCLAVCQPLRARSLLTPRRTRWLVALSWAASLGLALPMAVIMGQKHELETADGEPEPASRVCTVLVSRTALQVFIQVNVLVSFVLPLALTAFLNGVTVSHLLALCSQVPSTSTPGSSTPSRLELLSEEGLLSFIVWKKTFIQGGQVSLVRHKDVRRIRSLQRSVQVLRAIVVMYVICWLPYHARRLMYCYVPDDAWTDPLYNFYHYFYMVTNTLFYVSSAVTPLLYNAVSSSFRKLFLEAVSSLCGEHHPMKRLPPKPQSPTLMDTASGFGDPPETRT

Take `C[C@@H](CN1CCC(Cc2ccccc2)CC1)[C@@H](O)c1ccc(O)cc1` [Ro25]: the “Block of the increase in NMDA current amplitude caused by Arrb2 deficiency” value in data set [1] is “dose-dependently blocked”.
On to `COc1ccccc1C1CCN(c2nc(C3(C)CC3)nc3ccc(N(C)CCO)cc23)CC1` [SBI-810], for which the Co in data set [2] (Monkey, IV 5 mg/kg) turned out to be 4702 ng/mL; in data set [2] (Monkey, PO 20 mg/kg), 314 ng/mL. The compound further gave a T2/2 in data set [2] (Monkey, IV 5 mg/kg) of 6.54 h. Further, the CI in data set [2] (Monkey, PO 20 mg/kg) is reported as 5.2 mL/min/kg. The Oral availability entry in data set [2] (compared with SBI-553) is “enhanced oral availability”. Also, the Levels in plasma result in data set [2] (following i.v. and p.o. dosing) is listed as “good levels in plasma”. Moreover, the AUC stood at 4340 ng·h/mL in data set [2] (plasma, iv, 5 mg/kg, Monkey, IV 5 mg/kg, read-out: AUCo-inf); 4210 ng·h/mL in data set [2] (plasma, iv, 5 mg/kg, Monkey, IV 5 mg/kg, read-out: AUCo-last); 2230 ng·h/mL in data set [2] (plasma, po, 20 mg/kg, Monkey, PO 20 mg/kg, read-out: AUCo-inf); 2120 ng·h/mL in data set [2] (plasma, po, 20 mg/kg, Monkey, PO 20 mg/kg, read-out: AUCo-last). The compound further came in with a clearance in data set [2] (plasma, Monkey, IV 5 mg/kg) of 19.2 mL/min/kg. Besides, the MRT last in data set [2] (plasma, Monkey, IV 5 mg/kg) was 3.4 h; in data set [2] (plasma, Monkey, PO 20 mg/kg), 8 h. In data set [2] (plasma, Monkey, IV 5 mg/kg, read-out: Vdss), the Vd was found to be 5 L/kg. In addition, the half-life (in general, the time in which the quantity being followed falls by half) in data set [2] (plasma, Monkey, PO 20 mg/kg) was 4 h. Also, the “Translocation of β-arrestin-2 to intracellular compartments” value is “not observed” in data set [3] and “demonstrate translocation of β-arrestin-2” in data set [5]. Besides, the “Pain reduction compared with SBI-553” value in data set [4] is listed as “more effective in reducing pain than SBI-553”.
For the compound `COc1cccc(OC)c1-c1cc(C(=O)NC2(C(=O)O)C3CC4CC(C3)CC2C4)nn1-c1ccc(C(=O)N(C)CCCN(C)C)cc1C(C)C` (stereo not drawn) [SR142948A, reference compound], in data set [6], the “Displacement of [3H]SBI-553 from NTSR1” value is recorded as “not displaced”.
For `CN1CC[C@]23c4c5ccc(O)c4O[C@H]2[C@@H](O)C=C[C@H]3[C@H]1C5` [morphine, reference compound], the “Excitatory synaptic transmission (sEPSCs) in lamina IIo neurons” value in data set [7] is “did not produce significant inhibition”.
